Holding throughout (experiment): relative viability (nuclei count vs DMSO), 5 days (fraction); higher = more cells survive
Compound in the assay “AGI-6780 + Luminespib”: O=C(Nc1cccc(C(F)(F)F)c1)Nc1cc(S(=O)(=O)NC2CC2)ccc1-c1ccsc1 [AGI-6780] + CCNC(=O)c1noc(-c2cc(C(C)C)c(O)cc2O)c1-c1ccc(CN2CCOCC2)cc1 [Luminespib] (partner 0.01 µM)
The method in brief:
(§1)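 After 5 days of treatment, lung cancer cells in 1536-well plates were fixed and stained in a single step (final 0.05% Triton X-100, 1% formaldehyde, 1 ug/ml Hoechst) and their nuclei counted on 4× images. Treatment had been applied by pin tool the day after seeding as one drug alone or as a fixed anchor-drug dose with five library-drug doses (not always all listed) in √10 steps. Relative viability is the nuclei count of treated wells divided by that of vehicle wells, and values are medians of duplicate plates.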

Compound in the assay “AGI-6780 + Lapatinib”: O=C(Nc1cccc(C(F)(F)F)c1)Nc1cc(S(=O)(=O)NC2CC2)ccc1-c1ccsc1 [AGI-6780] + CS(=O)(=O)CCNCc1ccc(-c2ccc3ncnc(Nc4ccc(OCc5cccc(F)c5)c(Cl)c4)c3c2)o1 [Lapatinib] (partner 2 µM)
The method in brief: as §1

Compound in the assay “AGI-6780 + Decitabine”: O=C(Nc1cccc(C(F)(F)F)c1)Nc1cc(S(=O)(=O)NC2CC2)ccc1-c1ccsc1 [AGI-6780] + Nc1ncn([C@H]2C[C@H](O)[C@@H](CO)O2)c(=O)n1 [Decitabine] (partner 2 µM)
In outline: as §1

Compound in the assay “AGI-6780 + Olaparib”: O=C(Nc1cccc(C(F)(F)F)c1)Nc1cc(S(=O)(=O)NC2CC2)ccc1-c1ccsc1 [AGI-6780] + O=C(c1cc(Cc2n[nH]c(=O)c3ccccc23)ccc1F)N1CCN(C(=O)C2CC2)CC1 [Olaparib] (partner 8 µM)
In outline:
as §1

As for HCC-44, the relative viability in the assay with AGI-6780 + Luminespib (first compound 0.08 µM) turned out to be 1.18; with AGI-6780 + Luminespib (first compound 0.253 µM), 1.01; in the assay with AGI-6780 + Luminespib (first compound 0.8 µM), 1.16; with AGI-6780 + Luminespib (first compound 2.53 µM) it was 1.09; in the assay with AGI-6780 + Luminespib (first compound 8 µM), 0.982; with AGI-6780 + Lapatinib (first compound 0.08 µM) it was 0.989. Also, the relative viability with AGI-6780 + Lapatinib (first compound 0.253 µM) is 1; with AGI-6780 + Lapatinib (first compound 0.8 µM), 1.03; with AGI-6780 + Lapatinib (first compound 2.53 µM) it was 0.96; with AGI-6780 + Lapatinib (first compound 8 µM), 1.04; with AGI-6780 + Decitabine (first compound 0.08 µM), 0.926; with AGI-6780 + Decitabine (first compound 0.253 µM) it was 0.977. In addition, the relative viability with AGI-6780 + Decitabine (first compound 0.8 µM) worked out at 0.997; in the assay with AGI-6780 + Decitabine (first compound 2.53 µM), 0.94; with AGI-6780 + Decitabine (first compound 8 µM), 0.968; with AGI-6780 + Olaparib (first compound 0.08 µM), 1.03; with AGI-6780 + Olaparib (first compound 0.253 µM), 0.989; with AGI-6780 + Olaparib (first compound 0.8 µM) it was 0.98. Moreover, the values for the relative viability with AGI-6780 + Olaparib (first compound 2.53 µM) and with AGI-6780 + Olaparib (first compound 8 µM) were 0.979 and 1.02, respectively.
For NCI-H1993, the relative viability with AGI-6780 + Luminespib (first compound 0.08 µM) turned out to be 0.747; in the assay with AGI-6780 + Luminespib (first compound 0.253 µM), 0.913; with AGI-6780 + Luminespib (first compound 0.8 µM), 0.705; in the assay with AGI-6780 + Luminespib (first compound 2.53 µM), 0.642; with AGI-6780 + Luminespib (first compound 8 µM), 0.857; with AGI-6780 + Lapatinib (first compound 0.08 µM) it was 0.91. Moreover, the relative viability in the assay with AGI-6780 + Lapatinib (first compound 0.253 µM) was found to be 0.86; in the assay with AGI-6780 + Lapatinib (first compound 0.8 µM), 0.804; with AGI-6780 + Lapatinib (first compound 2.53 µM), 0.749; with AGI-6780 + Lapatinib (first compound 8 µM), 0.933; with AGI-6780 + Decitabine (first compound 0.08 µM), 0.593; with AGI-6780 + Decitabine (first compound 0.253 µM) it was 0.57. In addition, the relative viability with AGI-6780 + Decitabine (first compound 0.8 µM) amounted to 0.595; in the assay with AGI-6780 + Decitabine (first compound 8 µM), 0.688; with AGI-6780 + Olaparib (first compound 0.08 µM), 0.831; with AGI-6780 + Olaparib (first compound 0.253 µM), 1.11; with AGI-6780 + Olaparib (first compound 0.8 µM), 1.13; in the assay with AGI-6780 + Olaparib (first compound 8 µM) it was 1.09.
Take NCI-H2023: the relative viability with AGI-6780 + Luminespib (first compound 0.08 µM) turned out to be 0.877; with AGI-6780 + Luminespib (first compound 0.253 µM), 0.688; with AGI-6780 + Luminespib (first compound 0.8 µM) it was 0.602; in the assay with AGI-6780 + Luminespib (first compound 2.53 µM), 0.553; in the assay with AGI-6780 + Luminespib (first compound 8 µM), 0.686; in the assay with AGI-6780 + Lapatinib (first compound 0.08 µM) it was 0.902. The relative viability was 0.992 in the assay with AGI-6780 + Lapatinib (first compound 0.253 µM); 1 with AGI-6780 + Lapatinib (first compound 0.8 µM); 0.556 in the assay with AGI-6780 + Lapatinib (first compound 2.53 µM); 0.906 in the assay with AGI-6780 + Lapatinib (first compound 8 µM); 0.208 with AGI-6780 + Decitabine (first compound 0.08 µM); 0.238 with AGI-6780 + Decitabine (first compound 0.253 µM). In addition, the relative viability with AGI-6780 + Decitabine (first compound 0.8 µM) turned out to be 0.256; in the assay with AGI-6780 + Decitabine (first compound 2.53 µM), 0.233; in the assay with AGI-6780 + Decitabine (first compound 8 µM) it was 0.239; in the assay with AGI-6780 + Olaparib (first compound 0.08 µM), 0.5; with AGI-6780 + Olaparib (first compound 0.253 µM), 0.444; in the assay with AGI-6780 + Olaparib (first compound 0.8 µM) it was 0.437. The relative viability came to 0.374 with AGI-6780 + Olaparib (first compound 2.53 µM) and 0.492 in the assay with AGI-6780 + Olaparib (first compound 8 µM).
Turning to NCI-H1666, the relative viability with AGI-6780 + Luminespib (first compound 0.08 µM) is 1.04; with AGI-6780 + Luminespib (first compound 0.253 µM), 1.03; in the assay with AGI-6780 + Luminespib (first compound 0.8 µM) it was 1.01; with AGI-6780 + Luminespib (first compound 2.53 µM), 0.961; in the assay with AGI-6780 + Luminespib (first compound 8 µM), 1.06; with AGI-6780 + Lapatinib (first compound 0.08 µM), 0.784. In addition, the relative viability with AGI-6780 + Lapatinib (first compound 0.253 µM) is 0.597; in the assay with AGI-6780 + Lapatinib (first compound 0.8 µM), 0.578; with AGI-6780 + Lapatinib (first compound 8 µM), 0.73; with AGI-6780 + Decitabine (first compound 0.08 µM) it was 0.665; with AGI-6780 + Decitabine (first compound 0.253 µM) it was 0.78; in the assay with AGI-6780 + Decitabine (first compound 0.8 µM), 0.733. In addition, the relative viability was determined as 0.663 with AGI-6780 + Decitabine (first compound 2.53 µM); 0.72 with AGI-6780 + Decitabine (first compound 8 µM); 0.703 with AGI-6780 + Olaparib (first compound 0.08 µM); 0.714 with AGI-6780 + Olaparib (first compound 0.253 µM); 0.734 in the assay with AGI-6780 + Olaparib (first compound 0.8 µM); 0.766 with AGI-6780 + Olaparib (first compound 2.53 µM). The relative viability with AGI-6780 + Olaparib (first compound 8 µM) worked out at 0.75.
